From ChEMBL document CHEMBL2424650, “Optimization of anti-proliferative activity using a screening approach with a series of bis-heterocyclic G-quadruplex ligands” (Bioorg Med Chem Lett, 2013) come the findings set out here.

In general, ΔTm refers to the shift of the melting midpoint relative to a reference. One may read the IC50 as the concentration that gives 50% inhibition. The low end stands for inhibition by little substance, the high end for a need for much substance.

Structures are written as SMILES. A value given as a limit tells only on which side of the number the result lay.

A short description of assay [1]: Binding affinity to 21-mer Hsp90A promoter quadruplex (unknown origin) assessed as change in melting temperature at 5 uM by FRET assay.
Assay [2] is described as follows: Binding affinity to duplex DNA (unknown origin) assessed as change in melting temperature at 5 uM by FRET assay.
Assay [3] is described as follows: Binding affinity to c-kit2 G4-quadruplex DNA (unknown origin) assessed as change in melting temperature at 1 uM by FRET assay.
In another assay the test system is 786-0. Description: Antiproliferative activity against human 786-0 cells after 96 hrs by SRB assay. It counts as functional, cell-based. Particulars: 786-0, 96 h. (Sulforhodamine B stains cellular protein and so reports cell mass.)
Another assay has as its system A549. Description: Antiproliferative activity against human A549 cells after 96 hrs by SRB assay. Format: functional, cell-based. Particulars: A549, 96 h.
A short description of assay [4]: Binding affinity to 21-mer Hsp90A promoter quadruplex (unknown origin) assessed as change in melting temperature at 1 uM by FRET assay.
Assay [5] is filed under the species Homo sapiens. Description: Binding affinity to human F21T G4-telomeric quadruplex assessed as change in melting temperature at 5 uM by FRET assay.
The subject of another assay is MCF7. Description: Antiproliferative activity against human MCF7 cells after 96 hrs by SRB assay. Format: functional, cell-based. Particulars: MCF7, 96 h.
Assay [6] is filed under the species Homo sapiens. Description: Binding affinity to human F21T G4-telomeric quadruplex assessed as change in melting temperature at 1 uM by FRET assay.
Assay [7] is described as follows: Binding affinity to duplex DNA (unknown origin) assessed as change in melting temperature at 1 uM by FRET assay.
Assay [8] can be described thus: Binding affinity to c-kit2 G4-quadruplex DNA (unknown origin) assessed as change in melting temperature at 5 uM by FRET assay.
A short description of assay [9]: Antiproliferative activity against human […] cells after 96 hrs by SRB assay. Format: cell-based. Particulars: WI-38, 96 h.
Assay [10] is described as follows: Antiproliferative activity against human RCC4 cells after 96 hrs by SRB assay. Format: functional, cell-based. Particulars: RCC4, 96 h.

Turning to `CN1CCN(CCCNc2cccc(-n3cc(-c4ccc5ccc(-c6cn(-c7cccc(NCCCN8CCN(C)CC8)c7)nn6)cc5c4)nn3)c2)CC1`, the ΔTm in [1] was less than 10 °C; in assay [2], 0 °C; in assay [3] it was 2.4 °C; in [4] it was 5.7 °C; in the assay filed under Homo sapiens [5], less than 10 °C; in the assay listed under Homo sapiens [6], 2.9 °C. Also, the results for the ΔTm in assay [7] and in assay [8] were 0 °C and less than 10 °C, respectively. Moreover, the IC50 is 8700 nM in the assay with 786-0; more than 25000 nM with A549; more than 25000 nM in the assay with MCF7; 15300 nM in assay [9]; 8400 nM in assay [10].

As for `c1cc(-c2cnc(-c3cccc(NCCN4CCCC4)c3)o2)cc(-c2cnc(-c3cccc(NCCN4CCCC4)c3)o2)c1`, the ΔTm is 6.8 °C in assay [2]; less than 2 °C in assay [3]; less than 2 °C in [4]; 24.7 °C in the assay listed under Homo sapiens [5]; less than 2 °C in the assay listed under Homo sapiens [6]; 0 °C in assay [7]. In addition, the ΔTm in [8] is 17 °C. Further, the concentration for half-maximal inhibition (IC50) in the assay on 786-0 came out at 1100 nM; in the assay on A549, 600 nM; in the assay on MCF7, 2100 nM; in [9], 1000 nM; in [10], 1100 nM.

For `CN1CCN(CCCNc2cccc(-c3ncc(-c4cccc(-c5cnc(-c6cccc(NCCCN7CCN(C)CC7)c6)o5)c4)o3)c2)CC1`, the ΔTm in assay [1] is 25.6 °C; in [2], 0 °C; in [3], less than 2 °C; in assay [4] it was less than 2 °C; in the assay filed under Homo sapiens [5] it was 20.1 °C; in the assay filed under Homo sapiens [6] it was less than 2 °C. Also, the ΔTm in assay [7] was 0 °C; in assay [8], 18.3 °C. In addition, the IC50 with 786-0 was found to be 900 nM; in the assay with A549, 1200 nM; in the assay with MCF7, 1000 nM; in [9], 1100 nM; in [10], 1200 nM.

As for `CCN(CC)CCNc1cccc(-c2ncc(-c3cccc(-c4cnc(-c5cccc(NCCN(CC)CC)c5)o4)c3)o2)c1`, the ΔTm is 19.5 °C in assay [1]; 0 °C in [2]; less than 2 °C in assay [3]; less than 2 °C in [4]; 13.3 °C in the assay filed under Homo sapiens [5]; less than 2 °C in the assay filed under Homo sapiens [6]. The ΔTm in assay [7] came to 0 °C; in assay [8], 13.6 °C. Also, the IC50 in the assay on 786-0 was 1300 nM; with A549 it was 2500 nM; with MCF7, 3100 nM; in assay [9], 2800 nM; in assay [10] it was 1100 nM.

Turning to `c1cc(-c2cnc(-c3cccc(OCCN4CCCC4)c3)o2)cc(-c2cnc(-c3cccc(OCCN4CCCC4)c3)o2)c1`, the ΔTm was 27.7 °C in [1]; 5.3 °C in [2]; less than 2 °C in assay [3]; 3.4 °C in [4]; 25.9 °C in the assay listed under Homo sapiens [5]; less than 2 °C in the assay filed under Homo sapiens [6]. Further, the values for the ΔTm in [7] and in [8] were 0 °C and 20.3 °C, respectively. Moreover, the IC50 was found to be 700 nM in the assay on 786-0; 1000 nM with A549; 1200 nM in the assay with MCF7; 1000 nM in [9]; 1300 nM in assay [10].

Turning to `c1cc(-c2cnc(-c3cccc(CN4CCCCC4)c3)o2)cc(-c2cnc(-c3cccc(CN4CCCCC4)c3)o2)c1`, the ΔTm in assay [3] was less than 2 °C; in [4], 5 °C; in the assay listed under Homo sapiens [6] it was less than 2 °C; in assay [7] it was 2 °C. Also, the IC50 with 786-0 came to 2300 nM; with A549, 1200 nM; in the assay with MCF7, 1400 nM; in [9] it was 4400 nM; in assay [10], 1900 nM.

For `CN1CCN(CCCNc2ccc(-n3cc(-c4ccc5ccc(-c6cn(-c7ccc(NCCCN8CCN(C)CC8)cc7)nn6)cc5c4)nn3)cc2)CC1`, the ΔTm is less than 10 °C in assay [1]; 0 °C in [2]; less than 2 °C in [3]; less than 2 °C in assay [4]; less than 10 °C in the assay listed under Homo sapiens [5]; less than 2 °C in the assay filed under Homo sapiens [6]. The ΔTm in assay [7] is 0 °C; in assay [8], less than 10 °C. Also, the IC50 (in the assay with 786-0; in the assay on A549; with MCF7; in assay [9]; in [10]) was more than 25000 nM throughout.

Turning to `CN1CCN(CCCNc2cccc(-c3ncc(-c4ccc5ccc(-c6cnc(-c7cccc(NCCCN8CCN(C)CC8)c7)o6)cc5c4)o3)c2)CC1`, the ΔTm is less than 10 °C in assay [1]; 0 °C in assay [2]; less than 2 °C in assay [3]; 2.5 °C in assay [4]; less than 10 °C in the assay filed under Homo sapiens [5]; less than 2 °C in the assay listed under Homo sapiens [6]. The ΔTm in [7] is 0 °C; in assay [8], less than 10 °C. The IC50 worked out at 1200 nM in the assay with 786-0; 1600 nM in the assay with A549; 1900 nM with MCF7; 3100 nM in assay [9]; 2100 nM in [10].
